According to US20240034736A1, “HSD17B13 INHIBITORS AND USES THEREOF” (FL2022-001, Inc., priority 2020, published 2024):

Target: Recombinant human HSD17B13 enzyme (Homo sapiens (Human), UniProt Q7Z5P4)
Assay: HSD17b13 NAD(P)H-Glo Biochemical Assay
Settings: 50 uM estradiol, 1 mM NAD+; read-out: HSD17β13 IC50
Experimental: Recombinant human HSD17B13 enzyme. Substrate: estradiol (Sigma β-Estradiol E8875), 100 mM in DMSO. […] Assay buffer final concentration: 20 mM Tris pH7.4 with 0.002% Tween-20 and 0.02% BSA. […] Enzymatic activity detected by NAD(P)H-Glo™ Detection System (Promega G9062).
Inhibitor compounds were serially diluted in DMSO and then further diluted in assay buffer to a 10× concentration consisting of 1% DMSO.
HSD17b13 enzyme was diluted in 1× assay buffer to the desired enzyme concentration based on the specific activity of the enzyme lot. 20 uL of diluted enzyme was added to each well along with 2.5 uL of 10× inhibitor solution. Assay plate was incubated at RT for 20 minutes, and then 2.5 uL of a 10× substrate/cofactor mix was added to each well for a final concentration of 50 uM estradiol and 1 mMNAD+. Assay plate was incubated at 37° C. for 3 hours. NAD(P)H-Glo™ Detection System reagents were prepared according to manufacturer's specifications, and 25 uL was added to each well. After incubating for 1 hour at RT, luminescence was measured.

Chain of Recombinant human HSD17B13 enzyme (Q7Z5P4 20-300): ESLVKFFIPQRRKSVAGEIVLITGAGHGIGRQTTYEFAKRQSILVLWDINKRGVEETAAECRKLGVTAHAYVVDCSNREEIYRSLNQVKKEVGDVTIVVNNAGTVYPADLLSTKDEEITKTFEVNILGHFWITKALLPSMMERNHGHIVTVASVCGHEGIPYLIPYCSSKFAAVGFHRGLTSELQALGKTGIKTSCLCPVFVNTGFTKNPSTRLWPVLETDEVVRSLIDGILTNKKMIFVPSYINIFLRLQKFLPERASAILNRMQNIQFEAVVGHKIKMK

SMILES | IC50 [nM]
CS(=O)(=O)Nc1ccc(-c2ccc3c(cnn3-c3ccc(F)c(O)c3)c2)c(Cl)c1 [Compound 10, N-(3-Chloro-4-(1-(4-fluoro-3-hydroxyphenyl)-1H-indazol-5-yl)phenyl)methanesulfonamide] | 100 to 1000
CC(C)S(=O)(=O)Nc1ccc(-c2ccc3c(cnn3-c3ccc(F)c(O)c3)c2)cc1 [Compound 11, N-(4-(1-(4-Fluoro-3-hydroxyphenyl)-1H-indazol-5-yl)phenyl)propane-2-sulfonamide] | 100 to 1000
O=S(=O)(Nc1ccc(-c2ccc3c(cnn3-c3ccc(F)c(O)c3)c2)cc1)c1ccccc1 [Compound 11.01, N-(4-(1-(4-Fluoro-3-hydroxyphenyl)-1H-indazol-5-yl)phenyl)benzenesulfonamide] | 100 to 1000
CS(=O)(=O)Nc1ccc(-c2ccc3c(cnn3-c3ccc(F)c(O)c3)c2)cn1 [Compound 11.02, N-(5-(1-(4-Fluoro-3-hydroxyphenyl)-1H-indazol-5-yl)pyridine-2-yl)methanesulfonamide] | 1000 to 30000
O=C(O)c1ccc(-c2ccc3c(cnn3-c3ccc(F)c(O)c3)c2)c(Cl)c1 [Compound 12, 3-Chloro-4-(1-(4-Fluoro-3-hydroxyphenyl)-1H-indazol-5-yl)benzoic acid] | 1000 to 30000
NC(=O)c1ccc(-c2ccc3c(cnn3-c3ccc(F)c(O)c3)c2)c(Cl)c1 [Compound 13, 3-Chloro-4-(1-(4-fluoro-3-hydroxyphenyl)-1H-indazol-5-yl)benzamide] | 100 to 1000
CN(C)C(=O)c1nn(-c2ccc(F)c(O)c2)c2ccc(-c3ccc(O)c(Cl)c3)cc12 [Compound 14, 5-(3-Chloro-4-hydroxyphenyl)-1-(4-fluoro-3-hydroxyphenyl)-N,N-dimethyl-1H-indazole-3-carboxamide] | 100 to 1000
O=C(O)CCOc1ccc(-c2ccc3c(cnn3-c3ccc(F)c(O)c3)c2)cc1 [Compound 15, 3-(4-(1-(4-Fluoro-3-hydroxyphenyl)-1H-indazol-5-yl)phenoxy)propanoic acid] | 1000 to 30000
Oc1ccc(-c2ccc3c(cnn3-c3cc(O)c(F)c(F)c3)c2)nc1 [Compound 16, 6-(1-(3,4-Difluoro-5-hydroxyphenyl)-1H-indazol-5-yl)pyridine-3-ol] | 1000 to 30000
Oc1cnc(-c2ccc3c(cnn3-c3cc(O)c(F)c(F)c3)c2)c(Cl)c1 [Compound 16.01, 5-Chloro-6-(1-(3,4-difluoro-5-hydroxyphenyl)-1H-indazol-5-yl)pyridine-3-ol] | 100 to 1000
Oc1cnc(-c2ccc3c(cnn3-c3cc(O)c(F)c(F)c3)c2)nc1 [Compound 16.02, 2-(1-(3,4-Difluoro-5-hydroxyphenyl)-1H-indazol-5-yl)pyrimidin-5-ol] | 1000 to 30000
Oc1ccc(-c2ccc3c(cnn3-c3cc(O)c(F)c(F)c3)c2)cn1 [Compound 16.03, 5-(1-(3,4-Difluoro-5-hydroxyphenyl)-1H-indazol-5-yl)pyridine-2-ol] | 100 to 1000
Oc1cncc(-n2ncc3cc(-c4ccc(O)c(Cl)c4)ccc32)c1 [Compound 17, 5-(5-(3-Chloro-4-hydroxyphenyl)-1H-indazol-1-yl)pyridin-3-ol] | 100 to 1000
CC1(C)CC=C(c2cc3cnn(-c4cc(O)c(F)c(C(F)(F)F)c4)c3cc2F)CC1 [Compound 18, 5-(5-(4,4-Dimethylcyclohex-1-en-1-yl)-6-fluoro-1H-indazol-1-yl)-2-fluoro-3-(trifluoromethyl)phenol] | 100 to 1000
CC1(C)CC=C(c2ccc3c(cnn3-c3cc(O)c(F)c(C(F)(F)F)c3)c2)CC1 [Compound 18.01, 5-(5-(4,4-Dimethylcyclohex-1-en-1-yl)-1H-indazol-1-yl)-2-fluoro-3-(trifluoromethyl)phenol] | 100 to 1000
CC1(C)CC=C(c2ccc3nn(-c4cc(O)c(F)c(C(F)(F)F)c4)cc3c2)CC1 [Compound 18.02, 5-(5-(4,4-Dimethylcyclohex-1-en-1-yl)-2H-indazol-2-yl)-2-fluoro-3-(trifluoromethyl)phenol] | 100 to 1000
CS(=O)(=O)N1CCN(c2cc3cnn(-c4cc(O)c(F)c(C(F)(F)F)c4)c3cc2Cl)CC1 [Compound 19, 5-(6-Chloro-5-(4-(methylsulfonyl)piperazin-1-yl)-1H-indazol-1-yl)-2-fluoro-3-(trifluoromethyl)phenol] | < 100
CS(=O)(=O)N1CCN(c2cc3cnn(-c4cc(O)c(F)c(C(F)(F)F)c4)c3cc2F)CC1 [Compound 19.01, 2-Fluoro-5-(6-fluoro-5-(4-(methylsulfonyl)piperazin-1-yl)-1H-indazol-1-yl)-3-(trifluoromethyl)phenol] | 100 to 1000
CS(=O)(=O)N1CCN(c2cc3cnn(-c4cc(O)c(F)c(Cl)c4)c3cc2F)CC1 [Compound 19.02, 3-Chloro-2-fluoro-5-(6-fluoro-5-(4-(methylsulfonyl)piperazin-1-yl)-1H-indazol-1-yl)phenol] | 100 to 1000
CS(=O)(=O)N1CCN(c2cc3cnn(-c4ccc(Cl)c(O)c4F)c3cc2F)CC1 [Compound 19.03, 6-Chloro-2-fluoro-3-(6-fluoro-5-(4-(methylsulfonyl)piperazin-1-yl)-1H-indazol-1-yl)phenol] | 100 to 1000
CC1(C)CN(S(C)(=O)=O)CCN1c1cc2cnn(-c3cc(O)c(F)c(C(F)(F)F)c3)c2cn1 [Compound 19.04, 5-(5-(2,2-Dimethyl-4-(methylsulfonyl)piperazin-1-yl)-1H-pyrazolo[3,4-c]pyridine-1-yl)-2-fluoro-3-(trifluoromethyl)phenol] | 100 to 1000
CC1(C)CN(S(C)(=O)=O)CCN1c1cc2cn(-c3cc(O)c(F)c(C(F)(F)F)c3)nc2cn1 [Compound 19.05, 5-(5-(2,2-Dimethyl-4-(methylsulfonyl)piperazin-1-yl)-2H-pyrazolo[3,4-c]pyridine-2-yl)-2-fluoro-3-(trifluoromethyl)phenol] | 100 to 1000
CS(=O)(=O)N1CCN(c2cc3cnn(-c4cc(C(F)(F)F)cc(O)c4F)c3cn2)CC1 [Compound 19.06, 2-Fluoro-3-(5-(4-(methylsulfonyl)piperazin-1-yl)-1H-pyrazolo[3,4-c]pyridine-1-yl)-5-(trifluoromethyl)phenol] | 100 to 1000
CS(=O)(=O)N1CCN(c2cc3cnn(-c4ccc(F)c(O)c4F)c3cn2)CC1 [Compound 19.07, 2,6-Difluoro-3-(5-(4-(methylsulfonyl)piperazin-1-yl)-1H-pyrazolo[3,4-c]pyridine-1-yl)phenol] | 100 to 1000
CS(=O)(=O)N1CCN(c2cc3cn(-c4ccc(F)c(O)c4F)nc3cn2)CC1 [Compound 19.08, 2,6-Difluoro-3-(5-(4-(methylsulfonyl)piperazin-1-yl)-2H-pyrazolo[3,4-c]pyridine-2-yl)phenol] | 1000 to 30000
CS(=O)(=O)N1CCN(c2cc3cnn(-c4ccc(F)c(O)c4)c3cn2)CC1 [Compound 19.09, 2-Fluoro-5-(5-(4-(methylsulfonyl)piperazin-1-yl)-1H-pyrazolo[3,4-c]pyridine-1-yl)phenol] | 1000 to 30000
CS(=O)(=O)N1CCN(c2cc3cn(-c4ccc(F)c(O)c4)nc3cn2)CC1 [Compound 19.10, 2-Fluoro-5-(5-(4-(methylsulfonyl)piperazin-1-yl)-2H-pyrazolo[3,4-c]pyridine-2-yl)phenol] | 1000 to 30000
CS(=O)(=O)N1CCN(c2cc3cnn(-c4cccc(O)c4F)c3cn2)CC1 [Compound 19.11, 2-Fluoro-3-(5-(4-(methylsulfonyl)piperazin-1-yl)-1H-pyrazolo[3,4-c]pyridine-1-yl)phenol] | 1000 to 30000
